Values joined by “and” are separate entries in the source; they are usually repeats but may differ in a detail not shown here. Equal entries are not always repeated. Toxic doses and inconclusive results are not listed. Rule for the calls: active = survival T/C of 150% or more; inactive = T/C below 125% in these data.
Test system: P388 leukemia ip, CD2F1 mice, survival T/C
Assay: NCI In Vivo Anticancer Drug Screen. Data for tumor model P388 Leukemia (intraperitoneal) in CD2F1 (CDF1) mice
Settings: endpoint: median survival time, higher = longer survival
Procedure, shortened: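 Mice carrying the transplanted tumor received test compound or vehicle. Survival was recorded in each group, and the value is the treated-group measurement divided by that of the vehicle-treated control group.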

[1] = dose: 100.0 mg/kg/injection, schedule: Q01DX009 (ip), vehicle: saline with Tween-80
[2] = dose: 200.0 mg/kg/injection, schedule: Q01DX009 (ip), vehicle: saline with Tween-80
[3] = dose: 100.0 mg/kg/injection, schedule: Q01DX001 (ip), vehicle: saline
[4] = dose: 200.0 mg/kg/injection, schedule: Q01DX001 (ip), vehicle: saline
[5] = dose: 400.0 mg/kg/injection, schedule: Q01DX001 (ip), vehicle: saline
[6] = dose: 50.0 mg/kg/injection, schedule: Q01DX009 (ip), vehicle: saline
[7] = dose: 100.0 mg/kg/injection, schedule: Q01DX009 (ip), vehicle: saline
[8] = dose: 200.0 mg/kg/injection, schedule: Q01DX009 (ip), vehicle: saline
[9] = dose: 50.0 mg/kg/injection, schedule: Q01DX009 (ip), vehicle: saline with Tween-80
[10] = dose: 50.0 mg/kg/injection, schedule: Q01DX005 (ip), vehicle: saline with Tween-80
[11] = dose: 50.0 mg/kg/injection, schedule: Q01DX009 (ip), vehicle: Klucel (hydroxypropylcellulose) (HPC)
[12] = dose: 100.0 mg/kg/injection, schedule: Q01DX009 (ip), vehicle: Klucel (hydroxypropylcellulose) (HPC)
[13] = dose: 60.0 mg/kg/injection, schedule: Q01DX005 (ip), vehicle: saline with Tween-80
[14] = dose: 120.0 mg/kg/injection, schedule: Q01DX005 (ip), vehicle: saline with Tween-80
[15] = dose: 240.0 mg/kg/injection, schedule: Q01DX005 (ip), vehicle: saline with Tween-80
[16] = dose: 25.0 mg/kg/injection, schedule: Q01DX005 (ip), vehicle: Klucel (hydroxypropylcellulose) (HPC)
[17] = dose: 50.0 mg/kg/injection, schedule: Q01DX005 (ip), vehicle: Klucel (hydroxypropylcellulose) (HPC)
[18] = dose: 100.0 mg/kg/injection, schedule: Q01DX005 (ip), vehicle: Klucel (hydroxypropylcellulose) (HPC)
[19] = dose: 200.0 mg/kg/injection, schedule: Q01DX005 (ip), vehicle: Klucel (hydroxypropylcellulose) (HPC)
[20] = dose: 100.0 mg/kg/injection, schedule: Q01DX005 (ip), vehicle: saline with Tween-80
[21] = dose: 200.0 mg/kg/injection, schedule: Q01DX005 (ip), vehicle: saline with Tween-80
[22] = dose: 100.0 mg/kg/injection, schedule: Q04DX002 (ip), vehicle: saline with Tween-80

Measured: T/C

O=C(Nc1ccccc1)OCC(Cl)(Cl)Cl
inactive: [1] 100 % of control | [2] 100 % of control | dose: 400.0 mg/kg/injection, schedule: Q01DX009 (ip), vehicle: saline with Tween-80 119 % of control

COC(=O)C1(C)CCCC2(C)c3cc(OC(C)=O)c(C(C)C)cc3CCC12 (centres undefined)
inactive: [3] 100 % of control | [4] 106 % of control | [5] 105 % of control

O=CNCNC=O
inactive: [6] 95 % of control | [7] 90 % of control | [8] 99 % of control

CC(C)(C)OC(=O)NCCCCC(NC(=O)OC(C)(C)C)C(=O)O (centres undefined)
inactive: [9] 102 % of control | [1] 101 % of control | [2] 92 % of control

CNC(C)Cc1ccccc1 (centres undefined) (tested in a mixture with another compound)
inactive: dose: 6.25 mg/kg/injection, schedule: Q01DX005 (ip), vehicle: saline with Tween-80 112 % of control | dose: 12.5 mg/kg/injection, schedule: Q01DX005 (ip), vehicle: saline with Tween-80 103 % of control | dose: 25.0 mg/kg/injection, schedule: Q01DX005 (ip), vehicle: saline with Tween-80 104 % of control | [10] 116 % of control

O=C1CCC2(O)[C@@H]3Cc4ccc(O)c5c4[C@]2(CCN3Cc2ccoc2)C1O5 (some centres undefined)
inactive: [6] 124 % of control | dose: 66.0 mg/kg/injection, schedule: Q01DX009 (ip), vehicle: saline 107 % of control and 91 % of control | [7] 105 % of control and 121 % of control and 96 % of control | dose: 150.0 mg/kg/injection, schedule: Q01DX009 (ip), vehicle: saline 98 % of control and 116 % of control

Cc1nc(N)c(C#N)c(-c2ccccc2)c1-c1ccccc1
inactive: dose: 100.0 mg/kg/injection, schedule: Q01DX001 (ip), vehicle: saline with Tween-80 92 % of control | dose: 200.0 mg/kg/injection, schedule: Q01DX001 (ip), vehicle: saline with Tween-80 90 % of control | dose: 400.0 mg/kg/injection, schedule: Q01DX001 (ip), vehicle: saline with Tween-80 106 % of control

Cn1c(=O)c2cn[nH]c2n(C)c1=O
inactive: [11] 104 % of control | [12] 100 % of control | dose: 200.0 mg/kg/injection, schedule: Q01DX009 (ip), vehicle: Klucel (hydroxypropylcellulose) (HPC) 96 % of control

O=CC(=O)c1ccc(O)cc1
inactive: dose: 18.8 mg/kg/injection, schedule: Q04DX003 (ip), vehicle: saline 101 % of control | dose: 37.5 mg/kg/injection, schedule: Q04DX003 (ip), vehicle: saline 100 % of control | dose: 75.0 mg/kg/injection, schedule: Q04DX003 (ip), vehicle: saline 103 % of control | dose: 150.0 mg/kg/injection, schedule: Q04DX003 (ip), vehicle: saline 109 % of control

C/C=C\c1ccc(OC(=O)NC)c(OC)c1
inactive: [13] 100 % of control | [14] 104 % of control | [15] 100 % of control

CC(=O)C1=C(O)C(CC(C)C)NC1=O (centres undefined)
inactive: [16] 102 % of control | [17] 102 % of control | [18] 101 % of control

CC(=O)c1c(C)nc2c(-c3ccccc3)[nH]c(C)c2c1C
inactive: dose: 100.0 mg/kg/injection, schedule: Q04DX003 (ip), vehicle: Klucel (hydroxypropylcellulose) (HPC) 100 % of control | dose: 200.0 mg/kg/injection, schedule: Q04DX003 (ip), vehicle: Klucel (hydroxypropylcellulose) (HPC) 102 % of control | dose: 400.0 mg/kg/injection, schedule: Q04DX003 (ip), vehicle: Klucel (hydroxypropylcellulose) (HPC) 111 % of control

CC(=NC(C)C)Nc1ccccc1
inactive: [9] 104 % of control | [1] 105 % of control

CC1(C)OP(=O)(O)C=C1[Se]c1ccccc1
inactive: [17] 100 % of control | [18] 102 % of control | [19] 94 % of control

C=C1C(=O)O[C@@H]2[C@H]1CC[C@H](C)[C@]1(O)CCC(=O)[C@@]21C
inactive: dose: 12.5 mg/kg/injection, schedule: Q01DX009 (ip), vehicle: Klucel (hydroxypropylcellulose) (HPC) 112 % of control | dose: 25.0 mg/kg/injection, schedule: Q01DX009 (ip), vehicle: Klucel (hydroxypropylcellulose) (HPC) 114 % of control | dose: 44.0 mg/kg/injection, schedule: Q01DX009 (ip), vehicle: Klucel (hydroxypropylcellulose) (HPC) 115 % of control | [11] 117 % of control | dose: 67.0 mg/kg/injection, schedule: Q01DX009 (ip), vehicle: Klucel (hydroxypropylcellulose) (HPC) 117 % of control | [12] 117 % of control | dose: 150.0 mg/kg/injection, schedule: Q01DX009 (ip), vehicle: Klucel (hydroxypropylcellulose) (HPC) 122 % of control

CSc1cccc2c(NCCCCCCCCNc3c4ccccc4nc4c(SC)cccc34)c3ccccc3nc12
inactive: dose: 0.32 mg/kg/injection, schedule: Q01DX009 (ip), vehicle: other 101 % of control | dose: 0.63 mg/kg/injection, schedule: Q01DX009 (ip), vehicle: other 104 % of control | dose: 1.25 mg/kg/injection, schedule: Q01DX009 (ip), vehicle: other 113 % of control | dose: 2.5 mg/kg/injection, schedule: Q01DX009 (ip), vehicle: other 113 % of control | dose: 5.0 mg/kg/injection, schedule: Q01DX009 (ip), vehicle: other 109 % of control | dose: 10.0 mg/kg/injection, schedule: Q01DX009 (ip), vehicle: other 111 % of control

CCOC(=O)c1ccc2c(c1)nc(-c1ccccn1)n2CCc1ccccn1
inactive: [16] 100 % of control and 102 % of control | [17] 98 % of control | [18] 100 % of control and 107 % of control | [19] 109 % of control and 110 % of control

N=C(N)c1ccc(N=Nc2c(O)ccc3c2[nH]c2ccccc23)cc1
inactive: [10] 101 % of control | [20] 98 % of control | [21] 106 % of control

OCC(O)C1OC(c2ccccc2)OC2COC(c3ccccc3)OC21 (centres undefined)
inactive: [22] 97 % of control | dose: 200.0 mg/kg/injection, schedule: Q04DX002 (ip), vehicle: saline with Tween-80 86 % of control | dose: 400.0 mg/kg/injection, schedule: Q04DX002 (ip), vehicle: saline with Tween-80 89 % of control

C=C(c1ccc(OC)cc1)c1cc(C(C)(C)C)c(O)c(C(C)(C)C)c1
inactive: dose: 50.0 mg/kg/injection, schedule: Q01DX005 (ip), vehicle: saline + Tween-80 + alcohol 101 % of control | dose: 100.0 mg/kg/injection, schedule: Q01DX005 (ip), vehicle: saline + Tween-80 + alcohol 97 % of control | dose: 200.0 mg/kg/injection, schedule: Q01DX005 (ip), vehicle: saline + Tween-80 + alcohol 100 % of control

COc1ccc(NC(SC)=C(C#N)C#N)cc1
inactive: dose: 25.0 mg/kg/injection, schedule: Q04DX002 (ip), vehicle: saline with Tween-80 99 % of control | dose: 50.0 mg/kg/injection, schedule: Q04DX002 (ip), vehicle: saline with Tween-80 100 % of control | [22] 98 % of control

Cc1nc2c([N+](=O)[O-])cccc2c2ccccc12
inactive: dose: 100.0 mg/kg/injection, schedule: Q04DX002 (ip), vehicle: Klucel (hydroxypropylcellulose) (HPC) 94 % of control | dose: 200.0 mg/kg/injection, schedule: Q04DX002 (ip), vehicle: Klucel (hydroxypropylcellulose) (HPC) 89 % of control | dose: 400.0 mg/kg/injection, schedule: Q04DX002 (ip), vehicle: Klucel (hydroxypropylcellulose) (HPC) 98 % of control

CCNC(=O)CCC(NS(=O)(=O)c1ccc(NC(=O)c2ccc(Cl)cc2)cc1)C(=O)O (centres undefined)
inactive: [10] 107 % of control | [20] 104 % of control | [21] 102 % of control

C1=Cc2ccccc2C(c2ccccc2)S1 (centres undefined)
inactive: [6] 98 % of control | [7] 88 % of control | [8] 93 % of control | dose: 400.0 mg/kg/injection, schedule: Q01DX009 (ip), vehicle: saline 89 % of control

CNC(=S)N/N=C(\C)c1ccco1
inactive: [3] 104 % of control | [4] 97 % of control | [5] 97 % of control

Cc1ccc(C(O)c2cnc(C)n2Cc2ccccc2)cc1 (centres undefined)
inactive: [13] 100 % of control | [14] 98 % of control | [15] 92 % of control
